Measured values published in patent US11141413B2, “Method of treating renal cell carcinoma using N-(4-(6,7-dimethoxyquinolin-4-yloxy)phenyl)-N′-(4-fluorophenyl)cyclopropane-1,1-dicarboxamide, (2S)-hydroxybutanedioate” (Exelixis, Inc., priority 2016, dated 2021).

Columns and labels:
[1] = target: T1, CYP3A4 (Homo sapiens, UniProt P08684); assay: Metabolic pathways in vitro: effect of CYP inhibition on cabozantinib metabolite formation; assay type: in vitro ADME
[2] = target: MER (Homo sapiens, UniProt Q12866); assay: In vitro biochemical and/or cellular kinase assays
Sequence of MER (Q12866 21-999): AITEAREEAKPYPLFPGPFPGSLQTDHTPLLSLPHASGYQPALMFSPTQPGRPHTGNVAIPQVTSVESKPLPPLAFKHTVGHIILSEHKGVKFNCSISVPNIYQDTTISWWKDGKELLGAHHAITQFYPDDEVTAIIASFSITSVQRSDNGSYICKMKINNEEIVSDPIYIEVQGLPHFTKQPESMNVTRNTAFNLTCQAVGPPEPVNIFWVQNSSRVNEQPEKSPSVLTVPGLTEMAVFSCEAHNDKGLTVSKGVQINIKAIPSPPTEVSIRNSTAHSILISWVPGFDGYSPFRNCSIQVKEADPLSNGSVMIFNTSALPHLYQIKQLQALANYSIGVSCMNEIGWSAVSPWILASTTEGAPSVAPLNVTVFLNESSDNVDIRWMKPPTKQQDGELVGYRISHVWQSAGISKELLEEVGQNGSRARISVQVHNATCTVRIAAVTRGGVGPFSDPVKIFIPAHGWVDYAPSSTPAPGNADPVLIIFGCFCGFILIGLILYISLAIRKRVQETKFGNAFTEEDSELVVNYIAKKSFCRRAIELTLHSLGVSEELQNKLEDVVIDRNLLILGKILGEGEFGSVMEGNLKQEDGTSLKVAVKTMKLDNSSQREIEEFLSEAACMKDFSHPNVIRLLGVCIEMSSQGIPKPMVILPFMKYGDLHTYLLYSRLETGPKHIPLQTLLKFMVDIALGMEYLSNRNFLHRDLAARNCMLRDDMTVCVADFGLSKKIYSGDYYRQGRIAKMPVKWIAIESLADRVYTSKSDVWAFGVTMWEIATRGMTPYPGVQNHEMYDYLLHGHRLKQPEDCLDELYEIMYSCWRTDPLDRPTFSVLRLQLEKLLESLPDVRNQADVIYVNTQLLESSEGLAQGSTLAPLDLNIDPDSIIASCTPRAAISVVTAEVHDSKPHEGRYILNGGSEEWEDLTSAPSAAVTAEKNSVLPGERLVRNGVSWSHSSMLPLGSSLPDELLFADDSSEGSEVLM

[3] = target: CYP2C19 (Homo sapiens, UniProt P33261); assay: Metabolic pathways in vitro: effect of CYP inhibition on cabozantinib metabolite formation; assay type: in vitro ADME
Sequence of CYP2C19 (P33261 whole entry): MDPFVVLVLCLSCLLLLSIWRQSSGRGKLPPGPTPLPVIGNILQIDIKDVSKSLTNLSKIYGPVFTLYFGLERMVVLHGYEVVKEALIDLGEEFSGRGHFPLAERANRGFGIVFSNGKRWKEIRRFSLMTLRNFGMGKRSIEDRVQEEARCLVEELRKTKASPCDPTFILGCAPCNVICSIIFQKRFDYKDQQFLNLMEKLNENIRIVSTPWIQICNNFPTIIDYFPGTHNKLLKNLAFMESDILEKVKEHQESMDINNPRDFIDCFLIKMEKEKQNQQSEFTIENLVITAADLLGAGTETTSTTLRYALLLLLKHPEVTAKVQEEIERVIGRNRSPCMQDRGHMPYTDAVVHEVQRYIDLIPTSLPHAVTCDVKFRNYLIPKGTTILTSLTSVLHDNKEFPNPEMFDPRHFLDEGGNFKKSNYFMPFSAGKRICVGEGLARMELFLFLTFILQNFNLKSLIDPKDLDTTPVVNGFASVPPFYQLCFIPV

[4] = system: rasH2 transgenic mice; assay: 26-week carcinogenicity study; details: 26-week study
[5] = target: T1, CYP3A4; assay: Clinical drug interaction: strong CYP3A4 inducer rifampin on cabozantinib; assay type: in vivo; set-up: from tissue; details: with rifampin 600 mg daily for 31 days, healthy subjects
[6] = system: patients with advanced renal cell carcinoma; assay: METEOR quality of life (FKSI-19, FKSI-DRS, EQ-5D-5L) and time to deterioration; assay type: in vivo, human; details: for EQ-VAS, Cabo vs Evero Intercept (change at Week 4) / EQ-VAS, Cabo vs Evero Slope / FKSI-19 Total, Cabo vs Evero Intercept (change at Week 4) / FKSI-19 Total, Cabo vs Evero Slope / FKSI-DRS (9-item), Cabo vs Evero Intercept (change at Week 4) / FKSI-DRS (9-item), Cabo vs Evero Slope: growth curve analysis
Source text: Patients completed the 19-item Functional Assessment of Cancer Therapy-Kidney Symptoms Index (FKSI-19) and the 5-level EuroQoL-5 Dimensions (EQ-5D-5L) questionnaires at baseline and throughout the study. The 9-item FKSI-Disease Related Symptoms (FKSI-DRS) is a subset of FKSI-19. Data were summarized descriptively and by mixed-effects repeated-measures analysis (clinically relevant difference was an effect size ≥0.3). Time to deterioration (TTD) was defined as earlier of death, radiographic progressive disease or ≥4-point decrease from baseline in FKSI-DRS.
QoL was measured by using two validated patient self-reported instruments: the Functional Assessment of Cancer Therapy-Kidney Symptom Index-19 item (FKSI-19) and EuroQol Group's EQ-5D-5L questionnaires. Patients were required to complete the QoL questionnaires before any assessments at each clinic visit prior to the first dose, every 4 weeks through Week 25, every 8 weeks thereafter for the first year, then every 12 weeks thereafter. The QoL assessments were conducted per protocol prior to the patient knowing the results of their next tumor assessment. These assessments were performed regardless of whether study treatment was given, reduced, interrupted, or discontinued until the date of the last tumor imaging assessment. Questionnaires were provided on paper in the patient's own language.
The FKSI-19 instrument is a 19-item self-reported questionnaire with a total score and four subscales that assesses disease-related symptoms (DRS), treatment side effects, and function/well-being associated with advanced kidney cancer. It queries symptom severity and interference in activity and general health perceptions (Rao D, Butt Z, Rosenbloom S, Robinson D Jr, Von Roenn J, Kuzel T M, Cella D. A Comparison of the Renal Cell Carcinoma-Symptom Index (RCC-SI) and the Functional Assessment of Cancer Therapy-Kidney Symptom Index (FKSI). J Pain Symptom Manage. 2009; 38(2):291-8; Rothrock N E, Jensen S E, Beaumont J L, Abernethy A P, Jacobsen P B, Syrjala K, Cella D. Development and initial validation of the NCCN/FACT symptom index for advanced kidney cancer. Value Health. 2013; 16(5):789-96). The FKSI-19 comprises four sub-scales (DRS-Physical, DRS-Emotional, Treatment Side Effects, and Function/Well Being; Table 2.1). Each of the items is scored on a 5-point scale from 0 (not at all) to 4 (very much). Higher FKSI-19 scores indicate improvement. The FKSI-19 ensures content validity congruent with FDA Guidance (FDA. Guidance for Industry. Patient-Reported Outcome Measures: Use in Medical Product Development to Support Labeling Claims. December 2009). and was developed from a previous 9-item DRS version (FKSI-DRS; lack of energy, pain, losing weight, fatigue, short of breath, fevers, bone pain, coughing, blood in urine). The FKSI-19 includes selected treatment side effects that are important to the patient and physician.
The standardized measure of health status EQ-5D-5L, developed by the EuroQol, was also used in this study in order to measure generic health status (Herdman M, Gudex C, Lloyd A, Janssen M, Kind P, Parkin D, t al. Development and preliminary testing of the new five-level version of EQ-5D (EQ-5D-5L). Qual Life Res. 2011; 20(10):1727-36). It comprises five functional and symptom dimensions: mobility, self-care, usual activities, pain/discomfort, and anxiety/depression. Levels indicate increasing severity from Level 1 (no problem) to Levels 2 through 5 (mild problem to extreme problem). The digits from the 5 dimensions were converted into a single population-based index value normalized across the nine countries in the study for which index value sets were available (van Hout B, Janssen M F, Feng Y S, Kohlmann T, Busschbach J, Golicki D, et al. Interim scoring for the EQ-5D-5L: mapping the EQ-5D-5L to EQ-5D-3L value sets. Value Health. 2012; 15(5):708-15). Index values range from 0 to 1 and a higher index score indicates better health. […]

[7] = target: CYP2D6 (Homo sapiens, UniProt P10635); assay: In vitro CYP inhibition by cabozantinib; assay type: in vitro ADME
Sequence of CYP2D6 (P10635 whole entry): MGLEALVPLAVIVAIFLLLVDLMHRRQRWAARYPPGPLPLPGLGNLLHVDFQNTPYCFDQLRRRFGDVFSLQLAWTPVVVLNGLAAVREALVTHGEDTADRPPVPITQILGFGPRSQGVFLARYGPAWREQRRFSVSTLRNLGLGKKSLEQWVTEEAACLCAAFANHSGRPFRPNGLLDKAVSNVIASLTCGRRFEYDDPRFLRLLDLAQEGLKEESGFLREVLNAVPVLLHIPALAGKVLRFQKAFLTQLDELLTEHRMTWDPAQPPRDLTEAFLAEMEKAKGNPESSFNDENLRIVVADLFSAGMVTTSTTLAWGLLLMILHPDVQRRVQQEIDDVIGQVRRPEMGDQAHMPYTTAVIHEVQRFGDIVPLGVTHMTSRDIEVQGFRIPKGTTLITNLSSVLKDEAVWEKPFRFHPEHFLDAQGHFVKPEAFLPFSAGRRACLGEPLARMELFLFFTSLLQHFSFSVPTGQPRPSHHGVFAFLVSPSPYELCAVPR

[8] = FKSI-19 item, repeated measures, ITT
[9] = FKSI-19 subscale, repeated measures, ITT
[10] = bone metastases per IRC at baseline: No
[11] = bone metastases per IRC at baseline: Yes
[12] = cabozantinib vs everolimus, positive favors cabozantinib
[13] = Late Dropout (Week 41 or later)

T1 sequence (P08684 whole entry): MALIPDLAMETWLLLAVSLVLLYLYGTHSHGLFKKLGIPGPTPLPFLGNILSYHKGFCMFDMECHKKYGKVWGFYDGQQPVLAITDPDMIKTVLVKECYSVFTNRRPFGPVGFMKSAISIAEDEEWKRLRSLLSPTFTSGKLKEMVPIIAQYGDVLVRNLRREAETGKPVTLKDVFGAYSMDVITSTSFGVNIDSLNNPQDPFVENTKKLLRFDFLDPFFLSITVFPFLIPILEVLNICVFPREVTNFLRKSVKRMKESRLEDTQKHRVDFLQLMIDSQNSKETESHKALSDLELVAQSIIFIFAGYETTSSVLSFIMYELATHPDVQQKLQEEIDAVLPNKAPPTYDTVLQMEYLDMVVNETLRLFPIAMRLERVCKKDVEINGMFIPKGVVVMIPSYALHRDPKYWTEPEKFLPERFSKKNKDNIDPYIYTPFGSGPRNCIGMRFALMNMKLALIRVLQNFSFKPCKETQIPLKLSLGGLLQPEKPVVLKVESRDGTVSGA

COc1cc2nccc(Oc3ccc(NC(=O)C4(C(=O)Nc5ccc(F)cc5)CC4)cc3)c2cc1OC [cabozantinib]
CYP3A4 substrate status in vitro [1]: substrate | Inhibition of tyrosine kinase activity [2]: inhibits | Effect of inhibition of CYP2C19 on cabozantinib metabolite formation [3]: no effect | Carcinogenicity [4]: not carcinogenic | Decrease in single-dose plasma cabozantinib exposure (AUC0-inf) [5]: 77% | Able to work, LSMean change from baseline [6, 8]: −0.151 | Blood in my urine, LSMean change from baseline [6, 8]: 0.005 | Bone pain, LSMean change from baseline [6, 8]: 0.049 | Content with quality life, LSMean change from baseline [6, 8]: −0.035 | Coughing, LSMean change from baseline [6, 8]: 0.237 | Diarrhea, LSMean change from baseline [6, 8]: −1.28 | Enjoy life, LSMean change from baseline [6, 8]: −0.017 | Fatigued, LSMean change from baseline [6, 8]: −0.325 | Fevers, LSMean change from baseline [6, 8]: 0.056 | Good appetite, LSMean change from baseline [6, 8]: −0.166 | Lack of energy, LSMean change from baseline [6, 8]: −0.244 | Losing weight, LSMean change from baseline [6, 8]: −0.533 | Nausea, LSMean change from baseline [6, 8]: −0.236 | Pain, LSMean change from baseline [6, 8]: 0.125 | Short of breath, LSMean change from baseline [6, 8]: 0.029 | Side effects of treatment, LSMean change from baseline [6, 8]: −0.850 | Sleeping well, LSMean change from baseline [6, 8]: 0.018 | Weak all over, LSMean change from baseline [6, 8]: −0.281 | Worry condition worsen, LSMean change from baseline [6, 8]: 0.398 | DRS-Emotional, LSMean change from baseline [6, 9]: 0.398 | DRS-Physical, LSMean change from baseline [6, 9]: −1.093 | Function/Well-Being, LSMean change from baseline [6, 9]: −0.230 | Treatment Side Effects, LSMean change from baseline [6, 9]: −2.416 | Median TTD [6, 10]: 5.5 mo | TTD HR, cabozantinib vs everolimus [6, 10]: 0.69 | Median TTD [6, 11]: 5.6 mo | TTD HR, cabozantinib vs everolimus [6, 11]: 0.49 | Able to work, Effect Size [6, 12]: −0.037 | Blood in my urine, Effect Size [6, 12]: 0.023 | Bone pain, Effect Size [6, 12]: −0.008 | Content with quality life, Effect Size [6, 12]: −0.014 | Coughing, Effect Size [6, 12]: 0.28 | DRS-Emotional, Effect Size [6, 12]: 0.004 | DRS-Physical, Effect Size [6, 12]: 0.046 | EQ-VAS, Effect Size [6, 12]: −0.003 | Enjoy life, Effect Size [6, 12]: −0.002 | FKSI-19 (19-item) Total Score, Effect Size [6, 12]: −0.13 | FKSI-DRS (9-item), Effect Size [6, 12]: 0.087 | Fatigued, Effect Size [6, 12]: −0.017 | Fevers, Effect Size [6, 12]: 0.13 | Function/Well-Being, Effect Size [6, 12]: −0.019 | Good appetite, Effect Size [6, 12]: −0.23 | Lack of energy, Effect Size [6, 12]: −0.033 | Losing weight, Effect Size [6, 12]: −0.21 | Pain, Effect Size [6, 12]: 0.052 | Side effects of treatment, Effect Size [6, 12]: −0.24 | Sleeping well, Effect Size [6, 12]: 0.12 | Weak all over, Effect Size [6, 12]: −0.015 | Worry condition worsen, Effect Size [6, 12]: 0.004 | EQ-VAS, Cabo vs Evero Intercept (change at Week 4) ([6]; Early Dropout (before Week 24)): −1.933 | EQ-VAS, Cabo vs Evero Slope ([6]; Early Dropout (before Week 24)): 0.498 | FKSI-19 Total, Cabo vs Evero Intercept (change at Week 4) ([6]; Early Dropout (before Week 24)): 0.241 | FKSI-19 Total, Cabo vs Evero Slope ([6]; Early Dropout (before Week 24)): 0.131 | FKSI-DRS (9-item), Cabo vs Evero Intercept (change at Week 4) ([6]; Early Dropout (before Week 24)): 1.445 | FKSI-DRS (9-item), Cabo vs Evero Slope ([6]; Early Dropout (before Week 24)): 0.037 | EQ-VAS, Cabo vs Evero Intercept (change at Week 4) [6, 13]: −4.749 | EQ-VAS, Cabo vs Evero Slope [6, 13]: 0.134 | FKSI-19 Total, Cabo vs Evero Intercept (change at Week 4) [6, 13]: −5.141 | FKSI-19 Total, Cabo vs Evero Slope [6, 13]: 0.082 | FKSI-DRS (9-item), Cabo vs Evero Intercept (change at Week 4) [6, 13]: −1.307 | FKSI-DRS (9-item), Cabo vs Evero Slope [6, 13]: 0.046 | EQ-VAS, Cabo vs Evero Intercept (change at Week 4) ([6]; Median Dropout (Weeks 25-33)): −0.352 | EQ-VAS, Cabo vs Evero Slope ([6]; Median Dropout (Weeks 25-33)): 0.146 | FKSI-19 Total, Cabo vs Evero Intercept (change at Week 4) ([6]; Median Dropout (Weeks 25-33)): −2.003 | FKSI-19 Total, Cabo vs Evero Slope ([6]; Median Dropout (Weeks 25-33)): 0.141 | FKSI-DRS (9-item), Cabo vs Evero Intercept (change at Week 4) ([6]; Median Dropout (Weeks 25-33)): −0.313 | FKSI-DRS (9-item), Cabo vs Evero Slope ([6]; Median Dropout (Weeks 25-33)): 0.094 | TTD HR, cabozantinib vs everolimus ([6]; overall ITT, unstratified): 0.65 | Median time to deterioration (TTD) ([6]; overall ITT, earlier of death, rPD, ≥4-point FKSI-DRS decrease from baseline): 5.5 mo | EQ-VAS, LSMean change from baseline ([6]; repeated measures, ITT): −1.32 | FKSI-19 (19-item) Total Score, LSMean change from baseline ([6]; repeated measures, ITT): −3.483 | FKSI-DRS (9-item), LSMean change from baseline ([6]; repeated measures, ITT): −0.52 | Inhibition of CYP2D6 in vitro [7]: does not inhibit
